US20230085307A1, “PYRIDAZINONE COMPOUND AND HERBICIDE” (NISSAN CHEMICAL CORPORATION, priority 2019, published 2023)

Columns and labels:
late watergrass [1] = assay: Test Example 1: herbicidal activity, application before weed generation under submerged conditions (Table 16, symbol A); format: in vivo, late watergrass (Echinochloa oryzicola); conditions: amount of applied herbicide 320 g/ha
Summary of the method: (§1)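 Emulsion formulation, water-diluted to set dose, was put onto the flooded surface (4 cm depth, alluvial soil) the same day weeds were sown and 2.5-leaf rice transplanted. After 3 weeks at 25-30 °C under glass, each species was rated 0 (≤5% kill) to 5 (≥90% kill).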

Japanese bulrush [2] = assay: Test Example 1: herbicidal activity, application before weed generation under submerged conditions (Table 16, symbol B); format: in vivo, Japanese bulrush (Schoenoplectus juncoides); conditions: amount of applied herbicide 320 g/ha
Summary of the method: as §1

oval-leafed pondweed [3] = assay: Test Example 1: herbicidal activity, application before weed generation under submerged conditions (Table 16, symbol C); format: in vivo, oval-leafed pondweed (Monochoria vaginalis); conditions: amount of applied herbicide 320 g/ha
Summary of the method: as §1

late watergrass [4] = assay: Test Example 2: herbicidal activity, application during weed generation under submerged conditions (Table 17, symbol A); format: in vivo, late watergrass (Echinochloa oryzicola); conditions: AAH 320 g/ha; application during weed generation, submerged conditions
Summary of the method: (§2)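 Herbicide emulsion, diluted with water to the chosen amount, is applied onto 4 cm floodwater over alluvial soil where the weeds were co-sown and raised at 25–30° C. Application timing: 1–2 leaves. Assessment: three weeks afterwards.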

Japanese bulrush [5] = assay: Test Example 2: herbicidal activity, application during weed generation under submerged conditions (Table 17, symbol B); format: in vivo, Japanese bulrush (Schoenoplectus juncoides); conditions: AAH 320 g/ha; application during weed generation, submerged conditions
Summary of the method: as §2

oval-leafed pondweed [6] = assay: Test Example 2: herbicidal activity, application during weed generation under submerged conditions (Table 17, symbol C); format: in vivo, oval-leafed pondweed (Monochoria vaginalis); conditions: AAH 320 g/ha; application during weed generation, submerged conditions
Summary of the method: as §2

southern crabgrass [7] = assay: Test Example 4: herbicidal effect by soil treatment (Table 19, symbol F); format: in vivo, southern crabgrass (Digitaria ciliaris); conditions: amount of applied herbicide 320 g/ha
Summary of the method: (§3)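 Applied as a water-diluted emulsion, the compound was sprayed onto soil covering newly sown seeds. Evaluation came three weeks after application, in a greenhouse held at 25° C. to 30° C.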

green foxtail [8] = assay: Test Example 4: herbicidal effect by soil treatment (Table 19, symbol G); format: in vivo, green foxtail (Setaria viridis); conditions: amount of applied herbicide 320 g/ha
Summary of the method: as §3

barnyard grass [9] = assay: Test Example 4: herbicidal effect by soil treatment (Table 19, symbol H); format: in vivo, barnyard grass (Echinochloa crus-galli); conditions: amount of applied herbicide 320 g/ha
Summary of the method: as §3

velvetleaf [10] = assay: Test Example 4: herbicidal effect by soil treatment (Table 19, symbol M); format: in vivo, velvetleaf (Abutilon theophrasti); conditions: amount of applied herbicide 320 g/ha
Summary of the method: as §3

redroot pigweed [11] = assay: Test Example 4: herbicidal effect by soil treatment (Table 19, symbol N); format: in vivo, redroot pigweed (Amaranthus retroflexus); conditions: amount of applied herbicide 320 g/ha
Summary of the method: as §3

lambsquarters [12] = assay: Test Example 4: herbicidal effect by soil treatment (Table 19, symbol O); format: in vivo, lambsquarters (Chenopodium album); conditions: amount of applied herbicide 320 g/ha
Summary of the method: as §3

southern crabgrass [13] = assay: Test Example 5: herbicidal effect by foliage application, plastic box (Table 20, symbol F); format: in vivo, southern crabgrass (Digitaria ciliaris); conditions: foliage application, 320 g/ha, three weeks after application
Summary of the method: (§4)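 Sow seeds spot-wise in sterilized diluvial soil; cover with ~1.5 cm soil. Grow 14 days in greenhouse, 25° C. to 30° C. Spray foliage with emulsion diluted to predetermined amount. Rate effect after 3 weeks.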

green foxtail [14] = assay: Test Example 5: herbicidal effect by foliage application, plastic box (Table 20, symbol G); format: in vivo, green foxtail (Setaria viridis); conditions: foliage application, 320 g/ha, three weeks after application
Summary of the method: as §4

barnyard grass [15] = assay: Test Example 5: herbicidal effect by foliage application, plastic box (Table 20, symbol H); format: in vivo, barnyard grass (Echinochloa crus-galli); conditions: foliage application, 320 g/ha, three weeks after application
Summary of the method: as §4

velvetleaf [16] = assay: Test Example 5: herbicidal effect by foliage application, plastic box (Table 20, symbol M); format: in vivo, velvetleaf (Abutilon theophrasti); conditions: foliage application, 320 g/ha, three weeks after application
Summary of the method: as §4

redroot pigweed [17] = assay: Test Example 5: herbicidal effect by foliage application, plastic box (Table 20, symbol N); format: in vivo, redroot pigweed (Amaranthus retroflexus); conditions: foliage application, 320 g/ha, three weeks after application
Summary of the method: as §4

lambsquarters [18] = assay: Test Example 5: herbicidal effect by foliage application, plastic box (Table 20, symbol O); format: in vivo, lambsquarters (Chenopodium album); conditions: foliage application, 320 g/ha, three weeks after application
Summary of the method: as §4

barnyard grass [19] = assay: Test Example 3: herbicidal effect by foliage application, Wagner pot (Table 18, symbol H); format: in vivo, barnyard grass (Echinochloa crus-galli); conditions: 320 g/ha
Summary of the method: (§5)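 Plants were sown in alluvial soil held under 0.1–0.5 cm standing water and grown 14 days in a greenhouse at 25–30 °C. An emulsifiable formulation, water-diluted to the set dose, was then sprayed onto the foliage, and effects were scored three weeks later using previously defined criteria.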

Chinese sprangletop = assay: Test Example 3: herbicidal effect by foliage application, Wagner pot (Table 18, symbol D); format: in vivo, chinese sprangletop (Leptochloa chinensis); conditions: 320 g/ha
Summary of the method: as §5

rice flat sedge = assay: Test Example 3: herbicidal effect by foliage application, Wagner pot (Table 18, symbol E); format: in vivo, rice flat sedge (Cyperus iria); conditions: 320 g/ha
Summary of the method: as §5

wild oat = assay: Test Example 5: herbicidal effect by foliage application, plastic box (Table 20, symbol I); format: in vivo, wild oat (Avena fatua); conditions: foliage application, 320 g/ha, three weeks after application
Summary of the method: as §4

blackgrass = assay: Test Example 5: herbicidal effect by foliage application, plastic box (Table 20, symbol J); format: in vivo, blackgrass (Alopecurus myosuroides); conditions: foliage application, 320 g/ha, three weeks after application
Summary of the method: as §4

Italian ryegrass = assay: Test Example 5: herbicidal effect by foliage application, plastic box (Table 20, symbol K); format: in vivo, Italian ryegrass (Lolium multiflorum); conditions: foliage application, 320 g/ha, three weeks after application
Summary of the method: as §4

windgrass = assay: Test Example 5: herbicidal effect by foliage application, plastic box (Table 20, symbol L); format: in vivo, windgrass (Apera spica-venti); conditions: foliage application, 320 g/ha, three weeks after application
Summary of the method: as §4

persian speedwell = assay: Test Example 5: herbicidal effect by foliage application, plastic box (Table 20, symbol R); format: in vivo, Persian speedwell (Veronica persica); conditions: foliage application, 320 g/ha, three weeks after application
Summary of the method: as §4

| SMILES | Herbicidal effect, A: late watergrass (late watergrass [1]) | Herbicidal effect, B: Japanese bulrush (Japanese bulrush [2]) | Herbicidal effect, C: oval-leafed pondweed (oval-leafed pondweed [3]) | herbicidal effect rating, A: late watergrass (late watergrass [4]) | herbicidal effect rating, B: Japanese bulrush (Japanese bulrush [5]) | herbicidal effect rating, C: oval-leafed pondweed (oval-leafed pondweed [6]) | herbicidal effect on barnyard grass (H) (barnyard grass [19]) | herbicidal effect on Chinese sprangletop (D) (Chinese sprangletop) | herbicidal effect on rice flat sedge (E) (rice flat sedge) | herbicidal effect on southern crabgrass (F) (southern crabgrass [13]) | herbicidal effect on green foxtail (G) (green foxtail [14]) | herbicidal effect on barnyard grass (H) (barnyard grass [15]) | herbicidal effect on wild oat (I) (wild oat) | herbicidal effect on blackgrass (J) (blackgrass) | herbicidal effect on Italian ryegrass (K) (Italian ryegrass) | herbicidal effect on windgrass (L) (windgrass) | herbicidal effect on velvetleaf (M) (velvetleaf [16]) | herbicidal effect on lambsquarters (O) (lambsquarters [18]) | herbicidal effect on persian speedwell (R) (persian speedwell) | further results |
| --- | --- | --- | --- | --- | --- | --- | --- | --- | --- | --- | --- | --- | --- | --- | --- | --- | --- | --- | --- | --- |
| COCCOCc1ccc(-c2sc3ccc(F)cc3c2-c2c(O)c(C)nn(C)c2=O)cc1 [2-445] | 3 (Herbicidal rate of 40% or more and less than 70%) | 0 (Herbicidal rate of 5% or less (almost no effect)) | 0 (Herbicidal rate of 5% or less (almost no effect)) | 3 (Herbicidal rate of 40% or more and less than 70%) | 0 (Herbicidal rate of 5% or less (almost no effect)) | 0 (Herbicidal rate of 5% or less (almost no effect)) |  |  |  |  |  |  |  |  |  |  |  |  |  | herbicidal effect, F: southern crabgrass (southern crabgrass [7]): 5 (Herbicidal rate of 90% or more (almost completely withered)); herbicidal effect, G: green foxtail (green foxtail [8]): 5 (Herbicidal rate of 90% or more (almost completely withered)); herbicidal effect, H: barnyard grass (barnyard grass [9]): 4 (Herbicidal rate of 70% or more and less than 90%); herbicidal effect, M: velvetleaf (velvetleaf [10]): 3 (Herbicidal rate of 40% or more and less than 70%); herbicidal effect, N: redroot pigweed (redroot pigweed [11]): 5 (Herbicidal rate of 90% or more (almost completely withered)); herbicidal effect, O: lambsquarters (lambsquarters [12]): 4 (Herbicidal rate of 70% or more and less than 90%); F: southern crabgrass, herbicidal effect grade (southern crabgrass [13]): 5 (Herbicidal rate of 90% or more (almost completely withered)); G: green foxtail, herbicidal effect grade (green foxtail [14]): 5 (Herbicidal rate of 90% or more (almost completely withered)); H: barnyard grass, herbicidal effect grade (barnyard grass [15]): 5 (Herbicidal rate of 90% or more (almost completely withered)); M: velvetleaf, herbicidal effect grade (velvetleaf [16]): 5 (Herbicidal rate of 90% or more (almost completely withered)); N: redroot pigweed, herbicidal effect grade (redroot pigweed [17]): 5 (Herbicidal rate of 90% or more (almost completely withered)); O: lambsquarters, herbicidal effect grade (lambsquarters [18]): 5 (Herbicidal rate of 90% or more (almost completely withered)) |
| CCCC(=O)Oc1c(C)nn(C)c(=O)c1-c1c(-c2ccc(OC)cc2)sc2cc(C)c(C)cc12 [5-093] | 2 (Herbicidal rate of 20% or more and less than 40%) | 0 (Herbicidal rate of 5% or less (almost no effect)) | 0 (Herbicidal rate of 5% or less (almost no effect)) | 2 (Herbicidal rate of 20% or more and less than 40%) | 0 (Herbicidal rate of 5% or less (almost no effect)) | 0 (Herbicidal rate of 5% or less (almost no effect)) | 1 (Herbicidal rate of 5% or more and less than 20%) | 2 (Herbicidal rate of 20% or more and less than 40%) | 2 (Herbicidal rate of 20% or more and less than 40%) | 0 (Herbicidal rate of 5% or less (almost no effect)) | 0 (Herbicidal rate of 5% or less (almost no effect)) | 0 (Herbicidal rate of 5% or less (almost no effect)) | 0 (Herbicidal rate of 5% or less (almost no effect)) | 0 (Herbicidal rate of 5% or less (almost no effect)) | 0 (Herbicidal rate of 5% or less (almost no effect)) | 0 (Herbicidal rate of 5% or less (almost no effect)) | 1 (Herbicidal rate of 5% or more and less than 20%) | 3 (Herbicidal rate of 40% or more and less than 70%) | 0 (Herbicidal rate of 5% or less (almost no effect)) |  |
| CCCC(=O)Oc1c(C)nn(C)c(=O)c1-c1c(-c2ccc(F)cc2OCC)sc2cc(C)c(C)cc12 [5-104] | 4 (Herbicidal rate of 70% or more and less than 90%) | 0 (Herbicidal rate of 5% or less (almost no effect)) | 0 (Herbicidal rate of 5% or less (almost no effect)) | 4 (Herbicidal rate of 70% or more and less than 90%) | 4 (Herbicidal rate of 70% or more and less than 90%) | 4 (Herbicidal rate of 70% or more and less than 90%) | 5 (Herbicidal rate of 90% or more (almost completely withered)) | 5 (Herbicidal rate of 90% or more (almost completely withered)) | 4 (Herbicidal rate of 70% or more and less than 90%) | 5 (Herbicidal rate of 90% or more (almost completely withered)) | 4 (Herbicidal rate of 70% or more and less than 90%) | 4 (Herbicidal rate of 70% or more and less than 90%) | 4 (Herbicidal rate of 70% or more and less than 90%) | 4 (Herbicidal rate of 70% or more and less than 90%) | 4 (Herbicidal rate of 70% or more and less than 90%) | 4 (Herbicidal rate of 70% or more and less than 90%) | 4 (Herbicidal rate of 70% or more and less than 90%) | 4 (Herbicidal rate of 70% or more and less than 90%) | 5 (Herbicidal rate of 90% or more (almost completely withered)) |  |
